Laboratory results reported in patent publication US8669072B2, “Oxadiazoline ligands for modulating the expression of exogenous genes via an ecdysone receptor complex” (Intrexon Corporation, priority 2003, dated 2014).

Legend:
[1] = molecular target: T1, GAL4 DBD-CfEcR(DEF)/VP16AD-MmRXRE (Choristoneura fumiferana, UniProt O77240); experiment: 13B3 assay: luciferase reporter gene induction in stable CHO clone 13B3; type: cell-based; conditions: 33/33.3 μM ligand, 48 h, RLU relative to DMSO
T1 construct: The wild-type D, E, and F domains from spruce budworm Choristoneura fumiferana EcR (“CfEcR-DEF”)
Procedure: CHO cells were transiently transfected with transcription cassettes for GAL4 DBD-CfEcR(DEF) and for VP16AD-MmRXRF controlled by SV40e promoters. Stably transfected cells were selected using Hygromycin. Individually isolated CHO cell clones were transiently transfected with a GAL4 RE-luciferase reporter (pFR-Luc, Stratagene, La Jolla, Calif.). The 13B3 clone was selected using Zeocin.
Cells were trypsinized and diluted to a concentration of 2.5×10^4 cells mL. 100 μL of cell suspension was placed in each well of a 96 well plate and incubated at 37° C. under 5% CO2 for 24 h. Ligand stock solutions were prepared in DMSO and diluted 300 fold for all treatments.
Luciferase reporter gene expression was measured 48 h after cell treatment using Bright-Glo™ Luciferase Assay System from Promega (E2650). Luminescence was detected at room temperature using a Dynex MLX microtiter plate luminometer.
(§1) Each assay was conducted in two separate wells, and the two values were averaged. Fold inductions were calculated by dividing relative light units (“RLU”) in ligand treated cells with RLU in DMSO treated cells. EC50s were calculated from dose response data using a three-parameter logistic model.

Bombyx mori EcR (VBE) = molecular target: T2, Bombyx mori EcR (VBE) (Bombyx mori, UniProt P49881); experiment: Z3 assay: β-galactosidase reporter gene induction in HEK-293 clone Z3 (CVBE / 6XEcRE LacZ); type: cell-based; conditions: 33 μM ligand, 48 h, RLU relative to DMSO
T2 construct: expressed in transfected cells; host or cells: Human HEK-293 cells, retrovirally infected, clone Z3
T2 sequence (P49881 86-606 limits assumed): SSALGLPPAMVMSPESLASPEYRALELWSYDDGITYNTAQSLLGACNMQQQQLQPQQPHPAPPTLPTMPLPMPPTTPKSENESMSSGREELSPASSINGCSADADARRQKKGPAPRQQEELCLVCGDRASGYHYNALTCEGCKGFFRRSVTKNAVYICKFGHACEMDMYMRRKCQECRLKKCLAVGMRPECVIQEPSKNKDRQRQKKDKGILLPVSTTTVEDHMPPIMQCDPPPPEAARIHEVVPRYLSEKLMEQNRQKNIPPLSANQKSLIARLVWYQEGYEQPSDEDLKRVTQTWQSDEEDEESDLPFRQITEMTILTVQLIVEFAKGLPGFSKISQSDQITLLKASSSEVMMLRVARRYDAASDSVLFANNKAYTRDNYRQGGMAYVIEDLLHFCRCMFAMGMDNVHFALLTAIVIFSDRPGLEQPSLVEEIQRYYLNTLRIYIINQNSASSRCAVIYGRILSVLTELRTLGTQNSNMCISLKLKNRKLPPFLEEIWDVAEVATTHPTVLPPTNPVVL
T2 sequence (P19793 1-462 partner): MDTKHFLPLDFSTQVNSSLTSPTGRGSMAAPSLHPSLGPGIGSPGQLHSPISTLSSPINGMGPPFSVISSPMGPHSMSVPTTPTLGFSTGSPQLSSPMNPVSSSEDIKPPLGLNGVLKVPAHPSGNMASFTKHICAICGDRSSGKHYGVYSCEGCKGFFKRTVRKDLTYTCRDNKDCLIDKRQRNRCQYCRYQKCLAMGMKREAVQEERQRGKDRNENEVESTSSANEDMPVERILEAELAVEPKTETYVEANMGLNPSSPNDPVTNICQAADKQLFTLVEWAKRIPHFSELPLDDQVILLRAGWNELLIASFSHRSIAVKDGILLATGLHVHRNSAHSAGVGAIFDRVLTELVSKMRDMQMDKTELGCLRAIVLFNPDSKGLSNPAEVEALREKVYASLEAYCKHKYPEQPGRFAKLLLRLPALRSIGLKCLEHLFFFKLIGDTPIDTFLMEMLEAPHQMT
Procedure: A synthetic ATG start codon was placed under the control of cytomegalovirus (CVBE) immediate early promoter and flanked by long terminal repeats (LTR). The reporter construct contained six copies of the ecdysone response element (EcRE) binding site placed upstream of LacZ and flanked on both sides with LTR sequences (6×EcRE).
Dilution cloning was used to isolate individual clones. Clones were selected using 450 ug/mL G418 and 100 ng/mL puromycin. Individual clones were evaluated based on their response in the presence and absence of test ligands.
Z3 cells were seeded into 96-well tissue culture plates at a concentration of 2.5×10^3 cells per well and incubated at 37° C. in 5% CO2 for twenty-four hours. Stock solutions of ligands were prepared in DMSO. […] The final concentration of DMSO was maintained at 0.03% in both controls and treatments.
Reporter gene expression was evaluated 48 hours after treatment of cells, β-galactosidase activity was measured using Gal Screen™ bioluminescent reporter gene assay system from Tropix (GSY1000). Fold induction activities were calculated by dividing relative light units (“RLU”) in ligand treated cells with RLU in DMSO treated cells. Luminescence was detected at room temperature using a Dynex MLX microtiter plate luminometer.
as §1

CC1(C)ON=C(c2ccc(Cl)cc2)N1NC(=O)C(F)(F)C(F)(F)Cl [RG-120073]
Fold Induction Average, 13B3 assay [1]: 0.9 | Fold Induction Average, Z3 assay (Bombyx mori EcR (VBE)): 0.5

COc1ccccc1C1=NOC(C)(C)N1NC(=O)c1ccccc1 [RG-120147]
Fold Induction Average, 13B3 assay [1]: 1.1 | Fold Induction Average, Z3 assay (Bombyx mori EcR (VBE)): 1.0

CCOC(=O)CCC(=O)NN1C(c2ccccc2OC)=NOC1(C)C [RG-120144]
Fold Induction Average, 13B3 assay [1]: 0.1 | Fold Induction Average, Z3 assay (Bombyx mori EcR (VBE)): 0.7

CCOC(=O)CCC(=O)NN1C(c2ccc3c(c2)OCO3)=NOC1(C)C [RG-120083]
Fold Induction Average, 13B3 assay [1]: 1.3 | Fold Induction Average, Z3 assay (Bombyx mori EcR (VBE)): 0.8

CC1(C)ON=C(c2ccc(OC(F)(F)F)cc2)N1NC(=O)c1ccco1 [RG-120094]
Fold Induction Average, 13B3 assay [1]: 0.6 | Fold Induction Average, Z3 assay (Bombyx mori EcR (VBE)): 0.8

CCc1c(OC)cccc1C(=O)NN1C(c2ccc(-c3ccccc3)cc2)=NOC1(C)C [RG-120020]
Fold Induction Average, 13B3 assay [1]: 1.3 | Fold Induction Average, Z3 assay (Bombyx mori EcR (VBE)): 0.2

COc1ccccc1C1=NOC(C)(C)N1NC(=O)Nc1ccccc1 [RG-120025]
Fold Induction Average, 13B3 assay [1]: 0.9 | Fold Induction Average, Z3 assay (Bombyx mori EcR (VBE)): 0.8

COc1ccccc1C1=NOC(C)(C)N1NC(=O)COCc1ccccc1 [RG-120018]
Fold Induction Average, 13B3 assay [1]: 0.8 | Fold Induction Average, Z3 assay (Bombyx mori EcR (VBE)): 0.7

CC1(C)ON=C(c2ccc(Cl)cc2)N1NC(=O)COc1ccccc1 [RG-120162]
Fold Induction Average, 13B3 assay [1]: 0.9 | Fold Induction Average, Z3 assay (Bombyx mori EcR (VBE)): 0.7

CC1(C)ON=C(c2ccc3c(c2)OCO3)N1NC(=O)c1ccccc1 [RG-120156]
Fold Induction Average, 13B3 assay [1]: 1.4 | Fold Induction Average, Z3 assay (Bombyx mori EcR (VBE)): 0.7

COc1ccccc1C(=O)NN1C(c2cc(C)cc(C)c2)=NOC1(C)C [RG-120075]
Fold Induction Average, 13B3 assay [1]: 1.1 | Fold Induction Average, Z3 assay (Bombyx mori EcR (VBE)): 0.7

Cc1cc(C)cc(C2=NOC(C)(C)N2NC(=O)NC(=O)c2ccccc2)c1 [RG-120111]
Fold Induction Average, 13B3 assay [1]: 0.6 | Fold Induction Average, Z3 assay (Bombyx mori EcR (VBE)): 0.7

CC1(C)ON=C(c2ccc3c(c2)OCO3)N1NC(=O)COCc1ccccc1 [RG-120145]
Fold Induction Average, 13B3 assay [1]: 1.4 | Fold Induction Average, Z3 assay (Bombyx mori EcR (VBE)): 0.5

Cc1cc(C)cc(C2=NOC3(CCOCC3)N2NC(=O)COCc2ccccc2)c1 [RG-120009]
Fold Induction Average, 13B3 assay [1]: 1.3 | Fold Induction Average, Z3 assay (Bombyx mori EcR (VBE)): 0.8

CC1(C)ON=C(c2ccc(Cl)cc2)N1NC(=O)c1cc2ccccc2s1 [RG-120087]
Fold Induction Average, 13B3 assay [1]: 0.4 | Fold Induction Average, Z3 assay (Bombyx mori EcR (VBE)): 0.4

COc1ccc(C2=NOC(C)(C)N2NC(=O)Nc2ccccc2)c(OC)c1 [RG-120114]
Fold Induction Average, 13B3 assay [1]: 1.1 | Fold Induction Average, Z3 assay (Bombyx mori EcR (VBE)): 0.6

CCOC(=O)CCC(=O)NN1C(c2cccc(C(F)(F)F)c2)=NOC1(C)C [RG-120153]
Fold Induction Average, 13B3 assay [1]: 0.8 | Fold Induction Average, Z3 assay (Bombyx mori EcR (VBE)): 0.7

CC1(C)ON=C(c2ccc(OC(F)(F)F)cc2)N1NC(=O)Cc1ccccc1 [RG-120160]
Fold Induction Average, 13B3 assay [1]: 0.3 | Fold Induction Average, Z3 assay (Bombyx mori EcR (VBE)): 0.6

CC1(C)ON=C(c2cccc(C(F)(F)F)c2)N1NC(=O)c1ccco1 [RG-120070]
Fold Induction Average, 13B3 assay [1]: 0.4 | Fold Induction Average, Z3 assay (Bombyx mori EcR (VBE)): 0.7

CC1(C)ON=C(c2ccc(OC(F)(F)F)cc2)N1NC(=O)COCc1ccccc1 [RG-120066]
Fold Induction Average, 13B3 assay [1]: 1.4 | Fold Induction Average, Z3 assay (Bombyx mori EcR (VBE)): 0.6

Cc1cccc(NC(=O)NN2C(c3cc(C)cc(C)c3)=NOC2(C)C)c1 [RG-120056]
Fold Induction Average, 13B3 assay [1]: 0.1 | Fold Induction Average, Z3 assay (Bombyx mori EcR (VBE)): 1.0

CC1(C)ON=C(c2ccc3c(c2)OCO3)N1NC(=O)COc1ccccc1 [RG-120127]
Fold Induction Average, 13B3 assay [1]: 0.6 | Fold Induction Average, Z3 assay (Bombyx mori EcR (VBE)): 0.7

CC1(C)ON=C(c2ccc(OC(F)(F)F)cc2)N1NC(=O)Nc1ccccc1 [RG-120122]
Fold Induction Average, 13B3 assay [1]: 0.5 | Fold Induction Average, Z3 assay (Bombyx mori EcR (VBE)): 0.6

CC1(C)ON=C(c2ccc(Cl)cc2)N1NC(=O)c1ccccc1 [RG-120151]
Fold Induction Average, 13B3 assay [1]: 0.3 | Fold Induction Average, Z3 assay (Bombyx mori EcR (VBE)): 0.8

COc1ccccc1C1=NOC(C)(C)N1NC(=O)c1cc2ccccc2s1 [RG-120047]
Fold Induction Average, 13B3 assay [1]: 973.9 | Fold Induction Average, Z3 assay (Bombyx mori EcR (VBE)): 31.9

COc1ccc(C2=NOC(C)(C)N2NC(=O)COc2ccccc2)c(OC)c1 [RG-120079]
Fold Induction Average, 13B3 assay [1]: 0.7 | Fold Induction Average, Z3 assay (Bombyx mori EcR (VBE)): 0.6

Cc1cc(C)cc(C2=NOC(C)(C)N2NC(=O)c2cccc([N+](=O)[O-])c2)c1 [RG-120091]
Fold Induction Average, 13B3 assay [1]: 0.5 | Fold Induction Average, Z3 assay (Bombyx mori EcR (VBE)): 1.5

CC1(C)ON=C(c2ccc(OC(F)(F)F)cc2)N1NC(=O)c1ccccc1 [RG-120033]
Fold Induction Average, 13B3 assay [1]: 0.9 | Fold Induction Average, Z3 assay (Bombyx mori EcR (VBE)): 0.7

CC1(C)ON=C(c2cccc(C(F)(F)F)c2)N1NC(=O)COc1ccccc1 [RG-120163]
Fold Induction Average, 13B3 assay [1]: 1.1 | Fold Induction Average, Z3 assay (Bombyx mori EcR (VBE)): 0.5

Cc1cc(C)cc(C2=NOC(C)(C)N2NC(=O)NCc2ccccc2)c1 [RG-120088]
Fold Induction Average, 13B3 assay [1]: 0.9 | Fold Induction Average, Z3 assay (Bombyx mori EcR (VBE)): 8.2

Cc1cc(C)cc(C2=NOC(C)(C)N2NC(=O)c2ccccc2[N+](=O)[O-])c1 [RG-120098]
Fold Induction Average, 13B3 assay [1]: 0.3 | Fold Induction Average, Z3 assay (Bombyx mori EcR (VBE)): 1.8

CC1(C)ON=C(c2ccc(Cl)cc2)N1NC(=O)COCc1ccccc1 [RG-120117]
Fold Induction Average, 13B3 assay [1]: 1.2 | Fold Induction Average, Z3 assay (Bombyx mori EcR (VBE)): 0.8

CC1(C)ON=C(c2ccc3c(c2)OCO3)N1NC(=O)Cc1ccccc1 [RG-120081]
Fold Induction Average, 13B3 assay [1]: 0.5 | Fold Induction Average, Z3 assay (Bombyx mori EcR (VBE)): 0.6

Cc1cc(C)cc(C2=NOC(C)(C)N2NC(=O)Nc2ccccc2)c1 [RG-120072, 1-[3-(3,5-Dimethyl-phenyl)-5,5-dimethyl-[1,2,4]oxadiazol-4-yl]-3-phenyl-urea]
fold induction at 33.3 µM ([1]; read-out: Fold Induction Average, 13B3 assay): 0.6 | fold induction at 33 µM (Bombyx mori EcR (VBE); HEK293, read-out: Fold Induction Average, Z3 assay): 1.3

CC1(C)ON=C(c2ccc3c(c2)OCO3)N1NC(=O)c1cc2ccccc2s1 [RG-120140]
Fold Induction Average, 13B3 assay [1]: 1.4 | Fold Induction Average, Z3 assay (Bombyx mori EcR (VBE)): 0.5

COc1ccccc1C1=NOC(C)(C)N1NC(=O)COc1ccccc1 [RG-120057]
Fold Induction Average, 13B3 assay [1]: 0.6 | Fold Induction Average, Z3 assay (Bombyx mori EcR (VBE)): 0.8

CC1(C)ON=C(c2ccc(Cl)cc2)N1NC(=O)c1ccco1 [RG-120082]
Fold Induction Average, 13B3 assay [1]: 0.1 | Fold Induction Average, Z3 assay (Bombyx mori EcR (VBE)): 0.8

CC1(C)ON=C(c2ccc3c(c2)OCO3)N1NC(=O)Nc1ccccc1 [RG-120017]
Fold Induction Average, 13B3 assay [1]: 0.8 | Fold Induction Average, Z3 assay (Bombyx mori EcR (VBE)): 0.9
